{
  "source": "patent US20050037946A1",
  "about": "“Methods and compositions for treating cardiovascular disease using 1722, 10280, 59917, 85553, 10653, 9235, 21668, 17794, 2210, 6169, 10102, 21061, 17662, 1468, 12282, 6350, 9035, 1820, 23652, 7301, 8925, 8701, 3533, 9462, 9123, 12788, 17729, 65552, 1261, 21476, 33770, 9380, 2569654, 33556, 53656, …” (Millennium Pharmaceuticals, Inc., priority 2003, published 2005)",
  "key": {"[1]": {"test_system": "16408 mRNA", "experiment": "16408 mRNA in livers of mice treated with ciprofibrate (microarray)", "format": "in vivo"}, "[2]": {"test_system": "42028", "experiment": "42028 expression in livers of mice treated with ciprofibrate (microarray)", "format": "in vivo"}, "[3]": {"test_system": "554 mRNA", "experiment": "554 mRNA in livers of mice treated with ciprofibrate (microarray)", "format": "in vivo", "conditions": "livers of treated mice vs control liver samples, p=0.006"}, "[4]": {"test_system": "9380 mRNA", "experiment": "9380 mRNA in livers of mice treated with ciprofibrate (TaqMan)", "format": "in vivo", "text": "(§1) This example describes the TaqMan™ procedure. The Taqman™ procedure is a quantitative, reverse transcription PCR-based approach for detecting mRNA. The RT-PCR reaction exploits the 5′ nuclease activity of AmpliTaq Gold™ DNA Polymerase to cleave a TaqMan™ probe during PCR. Briefly, cDNA was generated from the samples of interest, e.g., heart, kidney, liver, skeletal muscle, and various vessels, and used as the starting material for PCR amplification. In addition to the 5′ and 3′ gene-specific primers, a gene-specific oligonucleotide probe (complementary to the region being amplified) was included in the reaction (i.e., the Taqman™ probe). […]\n(§2) During the PCR reaction, cleavage of the probe separates the reporter dye and the quencher dye, resulting in increased fluorescence of the reporter. Accumulation of PCR products is detected directly by monitoring the increase in fluorescence of the reporter dye. When the probe is intact, the proximity of the reporter dye to the quencher dye results in suppression of the reporter fluorescence. […]"}, "[5]": {"test_system": "8921 mRNA", "experiment": "8921 mRNA in liver samples of mice treated with ciprofibrate (microarray)", "format": "in vivo", "conditions": "liver samples of treated mice vs control liver samples, p=0.002"}, "[6]": {"test_system": "33770 mRNA", "experiment": "33770 mRNA in livers of mice, ciprofibrate (TaqMan)", "format": "in vivo", "conditions": "p=0.02", "text": "as §1, §2"}, "[7]": {"test_system": "2569654 mRNA", "experiment": "2569654 mRNA in livers of mice treated with Ciprofibrate (TaqMan)", "format": "in vivo", "text": "as §1, §2"}, "[8]": {"test_system": "54946 mRNA", "experiment": "54946 mRNA in livers of mice, ciprofibrate (microarray or RT-PCR)", "format": "in vivo", "conditions": "p=0.008"}, "[9]": {"test_system": "112091", "experiment": "112091 expression in livers of wild-type mice treated with ciprofibrate", "format": "in vivo"}, "[10]": {"test_system": "9123 mRNA", "experiment": "9123 mRNA in livers of mice treated with ciprofibrate (TaqMan)", "format": "in vivo", "conditions": "livers of mice during treatment", "text": "as §1, §2"}, "[11]": {"test_system": "2552 mRNA", "experiment": "2552 mRNA in livers of mice (TaqMan)", "format": "in vivo", "text": "as §1, §2"}, "[12]": {"test_system": "43969", "experiment": "43969 expression in livers of mice administered ciprofibrate (TaqMan)", "format": "in vivo", "text": "as §1, §2"}, "[13]": {"test_system": "7301 mRNA", "experiment": "7301 mRNA in livers of mice treated with ciprofibrate (TaqMan)", "format": "in vivo", "conditions": "livers of mice during treatment", "text": "as §1, §2"}, "[14]": {"test_system": "19319 mRNA", "experiment": "19319 mRNA in livers of mice administered ciprofibrate (TaqMan)", "format": "in vivo", "text": "as §1, §2"}, "[15]": {"test_system": "21668 mRNA", "experiment": "21668 mRNA in marmoset models treated with cholesterol lowering agents (TaqMan)", "format": "in vivo"}, "[16]": {"test_system": "9462 mRNA", "experiment": "9462 mRNA regulation by lipid lowering drugs (TaqMan)", "text": "as §1, §2"}, "[17]": {"test_system": "10653 mRNA", "experiment": "10653 mRNA in livers of marmosets treated with lipid-lowering therapies (TaqMan)", "format": "in vivo"}, "[18]": {"test_system": "9325 mRNA", "experiment": "9325 mRNA in livers of marmosets (TaqMan)", "format": "in vivo", "text": "as §1, §2"}, "[19]": {"test_system": "8925 mRNA", "experiment": "8925 mRNA in livers of marmosets treated with lipid-lowering therapies (TaqMan)", "format": "in vivo"}, "[20]": {"test_system": "8921 mRNA", "experiment": "8921 mRNA expression in marmosets", "format": "in vivo"}, "[21]": {"test_system": "2569654 mRNA", "experiment": "2569654 mRNA in marmoset models (TaqMan)", "format": "in vivo", "text": "(§3) This example describes the TaqMan™ procedure. The Taqman™ procedure is a quantitative, reverse transcription PCR-based approach for detecting mRNA. The RT-PCR reaction exploits the 5′ nuclease activity of AmpliTaq Gold™ DNA Polymerase to cleave a TaqMan™ probe during PCR. Briefly, cDNA was generated from the samples of interest, e.g., heart, kidney, liver, skeletal muscle, and various vessels, and used as the starting material for PCR amplification. In addition to the 5′ and 3′ gene-specific primers, a gene-specific oligonucleotide probe (complementary to the region being amplified) was included in the reaction (i.e., the Taqman™ probe). The TaqMan™ probe includes the oligonucleotide with a fluorescent reporter dye covalently linked to the 5′ end of the probe (such as FAM (6-carboxyfluorescein), TET (6-carboxy4,7,2′,7′-tetrachlorofluorescein), JOE (6-carboxy-4,5-dichloro-2,7-dimethoxyfluorescein), or VIC) and a quencher dye (TAMRA (6-carboxy-N,N,N′,N′-tetramethylrhodamine) at the 3′ end of the probe.\n(§4) During the PCR reaction, cleavage of the probe separates the reporter dye and the quencher dye, resulting in increased fluorescence of the reporter. Accumulation of PCR products is detected directly by monitoring the increase in fluorescence of the reporter dye. When the probe is intact, the proximity of the reporter dye to the quencher dye results in suppression of the reporter fluorescence. During PCR, if the target of interest is present, the probe specifically anneals between the forward and reverse primer sites. The 5′-3′ nucleolytic activity of the AmpliTaq™ Gold DNA Polymerase cleaves the probe between the reporter and the quencher only if the probe hybridizes to the target. The probe fragments are then displaced from the target, and polymerization of the strand continues. The 3′ end of the probe is blocked to prevent extension of the probe during PCR. […] RNA was prepared using the trizol method and treated with DNase to remove contaminating genomic DNA. cDNA was synthesized using standard techniques."}, "[22]": {"test_system": "2552 mRNA", "experiment": "2552 mRNA in marmoset livers (TaqMan)", "format": "in vivo"}, "[23]": {"test_system": "17729 mRNA", "experiment": "17729 mRNA in marmoset models (TaqMan)", "format": "in vivo"}, "[24]": {"test_system": "10102 mRNA", "experiment": "10102 mRNA regulation by lipid lowering drugs (TaqMan)"}, "[25]": {"test_system": "9380 mRNA", "experiment": "9380 mRNA in livers of marmosets (TaqMan)", "format": "in vivo"}, "[26]": {"test_system": "8701 mRNA", "experiment": "8701 mRNA in livers of marmosets treated with lipid-lowering therapies (TaqMan)", "format": "in vivo"}, "[27]": {"test_system": "19319 mRNA", "experiment": "19319 mRNA in livers of marmosets (TaqMan)", "format": "in vivo"}, "[28]": {"test_system": "3533 mRNA", "experiment": "3533 mRNA regulation by lipid lowering drugs (TaqMan)", "text": "as §3, §4"}, "[29]": {"test_system": "53656 mRNA", "experiment": "53656 mRNA in livers of Marmosets (TaqMan)", "format": "in vivo"}},
  "data": [
    {"compound": "CC(C)(Oc1ccc(C2CC2(Cl)Cl)cc1)C(=O)O", "note": "(centres unmarked) [ciprofibrate]", "values": [
      {"measurement": "16408 mRNA expression", "setting": "[1]", "result": "down-regulated"},
      {"measurement": "42028 expression", "setting": "[2]", "result": "down-regulated"},
      {"measurement": "554 mRNA downregulated", "setting": "[3]", "result": 0.68, "unit": "fold"},
      {"measurement": "9380 mRNA expression", "setting": "[4]", "result": "downregulated"},
      {"measurement": "8921 mRNA downregulated", "setting": "[5]", "result": 0.59, "unit": "fold"},
      {"measurement": "33770 mRNA downregulated", "setting": "[6]", "result": 0.76, "unit": "fold"},
      {"measurement": "2569654 mRNA expression", "setting": "[7]", "result": "significantly downregulated"},
      {"measurement": "54946 mRNA upregulated", "setting": "[8]", "result": 2.0, "unit": "fold"},
      {"measurement": "112091 expression", "setting": "[9]", "result": "down-regulated"},
      {"measurement": "9123 mRNA expression", "setting": "[10]", "result": "upregulated"},
      {"measurement": "2552 mRNA expression", "setting": "[11]", "result": "downregulate"},
      {"measurement": "43969 expression", "setting": "[12]", "result": "downregulated"},
      {"measurement": "7301 mRNA expression", "setting": "[13]", "result": "down-regulated"},
      {"measurement": "19319 mRNA expression", "setting": "[14]", "result": "upregulated"}
    ]},
    {"compound": "cholestyramine", "values": [
      {"measurement": "21668 mRNA expression", "setting": "[15]", "result": "marked increase"},
      {"measurement": "9462 mRNA expression", "setting": "[16]", "result": "upregulated"},
      {"measurement": "10653 mRNA expression", "setting": "[17]", "result": "downregualted"},
      {"measurement": "9325 mRNA upregulated", "setting": "[18]", "result": 1.4, "unit": "fold"},
      {"measurement": "8925 mRNA expression", "setting": "[19]", "result": "upregulated"},
      {"measurement": "increase in 8921 mRNA expression", "setting": "[20]", "result": 1.5, "unit": "fold"},
      {"measurement": "2569654 mRNA expression", "setting": "[21]", "result": "upregulated"},
      {"measurement": "2552 mRNA expression", "setting": "[22]", "result": "upregulated"},
      {"measurement": "17729 mRNA expression", "setting": "[23]", "result": "upregulated"},
      {"measurement": "10102 mRNA expression", "setting": "[24]", "result": "significantly upregulated"},
      {"measurement": "9380 mRNA expression", "setting": "[25]", "result": "upregulated"},
      {"measurement": "8701 mRNA expression", "setting": "[26]", "result": "upregulated"},
      {"measurement": "19319 mRNA expression", "setting": "[27]", "result": "upregulated"},
      {"measurement": "3533 mRNA expression", "setting": "[28]", "result": "significantly downregulated"},
      {"measurement": "53656 mRNA upregulated", "setting": "[29]", "result": 1.8, "unit": "fold"}
    ]}
  ]
}
